Results published in US20120232044A1, “METHODS AND COMPOSITIONS FOR TREATING HYPERURICEMIA AND METABOLIC DISORDERS ASSOCIATED WITH HYPERURICEMIA” (TWi Biotechnology, Inc., priority 2011, published 2012).

What was measured:
[1] = system: type 2 diabetes patients with micro-albuminuria, hyperuricemia sub-group (baseline blood uric acid higher than 7.0 mg/dL); test: DIA-DM01 trial, hyperuricemia sub-group: blood uric acid level under diacerein 50 mg bid versus placebo; format: in vivo, human; settings: for patients whose blood uric acid levels achieved normal range: normal: females below 6.0 mg/dL, males below 7.0 mg/dL
From the text: Objectives: To evaluate the efficacy and safety of diacerein for the treatment of albuminuria in patients with type 2 diabetes mellitus.
Primary Endpoints: To compare the change from baseline in the urinary albumin to creatinine ratio (UACR) after 24 weeks of diacerein or placebo administrated.
Subjects: Male or female type 2 diabetes patients (BMI≦35 kg/m^2) with micro-albuminuria.
Procedure: This was a Phase II, prospective, randomized, double-blind, and parallel comparison study comparing diacerein 50 mg bid (twice a day) versus placebo to albuminuria in patients with type 2 diabetes mellitus.
At the screening visit, patients who fulfilled the enrollment criteria and gave written informed consent entered a three to ten days screening period. During the screening period, the baseline UACR was evaluated. If the baseline UACR was greater than 50 mg/g, the patients were randomized into the […] treatment period in the 1:1 ratio (diacerein versus placebo). All participants were required to be taking stable dose of angiotensin-converting-enzyme (ACE) inhibitors, angiotensin receptor blockers (ARBs), or both, for three months prior to the study. These agents were continued throughout the trial. The hypoglycemic medications were maintained during the study period. The class and/or dosage were changed if clinically indicated. An introduction of a new treatment or any regimen change to the pre-existing co-medication that had hypoglycemic or hyperglycemic potential was allowed during the study with the consent of the clinical investigator.
The hyperuricemia sub-group was assembled from among the subjects with baseline blood uric acid level higher than 7.0 mg/dL. The results of blood uric acid level in the two treatment groups were analyzed by paired t-test of within-group changes.
Subjects (n=76) with diabetic microalbinuria were randomized in a 1:1 ratio to receive twice-daily diacerein 50 mg (n=38), or placebo (n=38) for 24 weeks. The baseline blood levels of uric acid in nine subjects of the diacerein group (2 females and 7 males) and twelve subjects of the placebo group (2 females and 10 males) in the hyperuricemia subgroup were above 7.0 mg/dL, and the mean levels were 8.06 mg/dL and 8.38 mg/dL respectively.

[2] = system: subjects with chronic gout and hyperuricemia; test: Case study of diacerein and allopurinol combination therapy in subjects with chronic gout and hyperuricemia; format: in vivo, human; settings: for blood level of uric acid: visit 1 before diacerein
Method: In DIA-DM01 trial described in Example 1, two subjects enrolled in the diacerein group had chronic gout history and were currently treating with allopurinol.
Case 1: A person with history of chronic gout and hyperuricemia was treated with allopurinol since Jan. 2, 2009. Before they were enrolled in the diacerein trial, their medical treatment was unsatisfactory, and their blood level of uric acid was 8.3 mg/dL in visit 1 (Jul. 8, 2009).
Case 2: A person with history of chronic gout and hyperuricemia was treated with allopurinol since Aug. 27, 2009. Before they were enrolled in the diacerein trial, their medical treatment was also unsatisfactory, and their blood level of uric acid was 9.5 mg/dL in visit 1 (Dec. 18, 2009).

SMILES | patients whose blood uric acid levels achieved normal range ([1]; 24-week treatment with diacerein) | Uric Acid, Mean ([1]; Baseline (before treatment), diacerein group, N=9) [mg/dL] | Uric Acid, Mean ([1]; Baseline (before treatment), diacerein group, N=9, listed as Diacerein) [mg/dL] | patients whose blood uric acid levels achieved normal range ([1]; after 12 weeks of diacerein) | blood uric acid levels maintained during the treatment period ([1]; diacerein 50 mg bid, below the upper end of the normal range) | Uric Acid, Mean ([1]; week 12, diacerein 50 mg bid, N=9) [mg/dL] | Uric Acid, Change from baseline ([1]; week 12, diacerein 50 mg bid, N=9, p=0.0037 vs. baseline) [mg/dL] | Uric Acid, Mean ([1]; week 24, diacerein 50 mg bid, N=7) [mg/dL] | Uric Acid, Change from baseline ([1]; week 24, diacerein 50 mg bid, N=7, p=0.0060 vs. baseline) [mg/dL] | blood uric acid level ([2]; Case 1, after 24 weeks of diacerein add-on to allopurinol) [mg/dL] | acute flares during the treatment period ([2]; Case 1, diacerein add-on to allopurinol, 24 weeks) | blood uric acid level ([2]; Case 2, after 12 weeks of diacerein add-on to allopurinol) [mg/dL] | blood level of uric acid ([2]; Case 1, on allopurinol alone) [mg/dL] | blood level of uric acid ([2]; Case 2, on allopurinol alone) [mg/dL]
CC(=O)Oc1cccc2c1C(=O)c1c(OC(C)=O)cc(C(=O)O)cc1C2=O [diacerein, 4,5-bis(acetyloxy)-9,10-dioxo-2-anthracene carboxylic acid] | four of the remaining seven patients | 8.06 | 8.0667 | six of the nine patients | below 7.0 mg/dL | 6.6667 | -1.40 | 6.5571 | -1.34 | 7.5 | No acute flares were observed | 6.4 | – | –
Oc1ncnc2[nH]ncc12 [allopurinol] | – | – | – | – | – | – | – | – | – | – | – | – | 8.3 | 9.5
